The source made the active and inactive calls. The rule behind the calls is not given here.
Columns and labels:
Mus musculus [1] = assay: Antiinflammatory activity in paraffin oil challenged C3H-FeJ peritonitis mouse model assessed as peritoneal levage macrophage count per 10^5/mL at 2 mg/kg, ip after 7 days; format: functional; conditions: route intraperitoneal
L929 [2] = assay: Inhibition of LPS-induced TNFalpha production in mouse L929 cells after 4 hrs by ELISA; format: functional, cell-based; conditions: L929, 4 h
Mus musculus [3] = assay: Effect on TNF-mediated cytotoxicity against C3H-FeJ mouse […] cells at 4 mg/kg, ip after 7 days; format: functional; conditions: route intraperitoneal
HT-29 [4] = assay: Inhibition of LPS-stimulated prostaglandin E2 release in human HT29 cells after 6 hrs by ELISA; format: functional, cell-based
Mus musculus [5] = assay: Antiinflammatory activity against carrageenan-induced hind paw edema in CD1 foot-pad mouse model assessed as reduction in paw swelling at 30 mg/kg, ip after 6 hrs; format: functional, organism-based; set-up: dose 30 mg/kg
RAW [6] = assay: Inhibition of LPS-induced iNOS mRNA level in mouse RAW 264.7 cells by Northern blot analysis; format: functional, cell-based
L929 [7] = assay: Effect on TNF-mediated cytotoxicity against mouse L929 cells at 10 ug/mL after 18 hrs by crystal-violet staining assay; format: functional
Mus musculus [8] = assay: Effect on TNF-mediated cytotoxicity against C3H-FeJ mouse L929 cells at 2 mg/kg, ip after 3 days; format: functional; conditions: route intraperitoneal
L929 [9] = assay: Effect on TNF-mediated cytotoxicity against mouse L929 cells at 100 ug/mL after 18 hrs by crystal-violet staining assay; format: functional
Mus musculus [10] = assay: Antiinflammatory activity against carrageenan-induced hind paw edema in ICR foot-pad mouse model assessed as reduction in paw swelling at 30 mg/kg, ip after 6 hrs; format: functional, organism-based; set-up: dose 30 mg/kg
Mus musculus [11] = assay: Antiinflammatory activity against TNBS-induced colitis in BALB/c IBD mouse model at 25 mg/kg, ip; format: functional, organism-based; set-up: dose 25 mg/kg
HT-29 [12] = assay: Inhibition of LPS-stimulated […] release in human HT29 cells after 6 hrs by ELISA; format: functional, cell-based
L929 [13] = assay: Effect on TNF-mediated cytotoxicity against mouse L929 cells at 1 ug/mL after 18 hrs by crystal-violet staining assay; format: functional
Mus musculus [14] = assay: Effect on TNF-mediated cytotoxicity against C3H-FeJ mouse L929 cells at 2 mg/kg, ip after 7 days; format: functional; conditions: route intraperitoneal
Mus musculus [15] = assay: Effect on LPS-induced nitric oxide production in C3H-FeJ peritonitis mouse peritoneal macrophages at 2 mg/kg, ip after 7 days; format: functional; conditions: route intraperitoneal
Mus musculus [16] = assay: Effect on TNF-mediated cytotoxicity against C3H-FeJ mouse […] cells at 4 mg/kg, ip after 3 days; format: functional; conditions: route intraperitoneal
RAW [17] = assay: Inhibition of LPS-induced TNFalpha production in mouse RAW 264.7 cells after 4 hrs by ELISA; format: functional, cell-based
RAW [18] = assay: Inhibition of LPS-induced nitric oxide production in mouse RAW 264.7 cells assessed as nitrite formation; format: functional, cell-based
Mus musculus [19] = assay: Antiinflammatory activity in paraffin oil challenged C3H-FeJ peritonitis mouse model assessed as peritoneal levage macrophage count per 10^5/mL at 4 mg/kg, ip after 3 days; format: functional; conditions: route intraperitoneal
Mus musculus [20] = assay: Effect on LPS-induced nitric oxide production in C3H-FeJ peritonitis mouse peritoneal macrophages at 4 mg/kg, ip after 3 days; format: functional; conditions: route intraperitoneal
RAW [21] = assay: Inhibition of LPS-induced TNFalpha mRNA level in mouse RAW 264.7 cells by Northern blot analysis; format: functional, cell-based
Mus musculus [22] = assay: Antiinflammatory activity in paraffin oil challenged C3H-FeJ peritonitis mouse model assessed as peritoneal levage macrophage count per 10^5/mL at 2 mg/kg, ip after 3 days; format: functional; conditions: route intraperitoneal
Mus musculus [23] = species on record: Mus musculus; assay: Antiinflammatory activity against LPS-galactosamine challenged C57BL/6J SIRS mouse model at 500 ug assessed as mortality within 24 hrs; format: functional, organism-based
Mus musculus [24] = assay: Effect on LPS-induced nitric oxide production in C3H-FeJ peritonitis mouse peritoneal macrophages at 2 mg/kg, ip after 3 days; format: functional; conditions: route intraperitoneal
Mus musculus [25] = assay: Antiinflammatory activity in paraffin oil challenged ip dosed C3H-FeJ peritonitis mouse model after 7 days; format: functional; conditions: 168 h
Mus musculus [26] = assay: Effect on LPS-induced nitric oxide production in C3H-FeJ peritonitis mouse peritoneal macrophages at 4 mg/kg, ip after 7 days; format: functional; conditions: route intraperitoneal
[27] = target: T1, Tyrosine-protein kinase JAK3 (Mus musculus) (UniProt Q62137); assay: Reduction of LPS-induced JAK3 phosphorylation in mouse RAW 264.7 cells at 100 ug/mL by Western blot analysis; format: cell-based
T1 sequence (whole entry): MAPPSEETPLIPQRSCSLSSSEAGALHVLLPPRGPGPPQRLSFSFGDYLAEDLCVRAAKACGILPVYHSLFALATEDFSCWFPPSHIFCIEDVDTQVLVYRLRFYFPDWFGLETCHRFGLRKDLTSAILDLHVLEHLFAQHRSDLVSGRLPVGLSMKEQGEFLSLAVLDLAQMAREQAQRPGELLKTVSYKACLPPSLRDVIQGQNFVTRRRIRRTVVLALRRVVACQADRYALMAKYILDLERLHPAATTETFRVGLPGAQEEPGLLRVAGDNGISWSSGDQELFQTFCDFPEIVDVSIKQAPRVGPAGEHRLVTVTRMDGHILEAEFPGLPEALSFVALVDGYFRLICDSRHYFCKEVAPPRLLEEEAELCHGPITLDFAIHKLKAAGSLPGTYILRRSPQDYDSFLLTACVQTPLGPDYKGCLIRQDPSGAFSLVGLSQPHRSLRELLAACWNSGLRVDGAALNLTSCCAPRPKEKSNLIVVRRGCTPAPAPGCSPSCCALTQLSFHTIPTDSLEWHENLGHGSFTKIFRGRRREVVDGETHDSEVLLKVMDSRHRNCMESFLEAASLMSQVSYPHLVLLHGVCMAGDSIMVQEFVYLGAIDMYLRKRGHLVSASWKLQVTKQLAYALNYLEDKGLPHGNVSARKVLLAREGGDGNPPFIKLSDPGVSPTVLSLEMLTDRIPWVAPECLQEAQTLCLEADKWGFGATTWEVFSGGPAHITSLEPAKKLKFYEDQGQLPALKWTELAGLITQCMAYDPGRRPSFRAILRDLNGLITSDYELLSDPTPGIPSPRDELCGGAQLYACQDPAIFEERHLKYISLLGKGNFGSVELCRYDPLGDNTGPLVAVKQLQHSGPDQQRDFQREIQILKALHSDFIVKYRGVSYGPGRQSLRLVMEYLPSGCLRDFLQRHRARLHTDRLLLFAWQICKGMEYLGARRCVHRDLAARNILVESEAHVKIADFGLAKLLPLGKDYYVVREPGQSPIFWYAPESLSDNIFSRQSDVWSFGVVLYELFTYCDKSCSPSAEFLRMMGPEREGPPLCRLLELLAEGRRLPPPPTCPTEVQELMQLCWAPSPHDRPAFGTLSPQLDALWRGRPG

L929 [28] = assay: Inhibition of LPS-induced nitric oxide production in mouse L929 cells assessed as nitrite formation; format: functional, cell-based
Mus musculus [29] = assay: Antiinflammatory activity in paraffin oil challenged C3H-FeJ peritonitis mouse model assessed as peritoneal levage macrophage count per 10^5/mL at 4 mg/kg, ip after 7 days; format: functional; conditions: route intraperitoneal

COc1cc2ncnc(Nc3ccc(O)cc3)c2cc1OC [WHI-P131] showed an Activity (Mus musculus [1]) of 4.3, an IC50 (L929 [2]) of 14.5 µM and an Activity (Mus musculus [3]) of 34.6%. The Activity (HT-29 [4]) was “Active”, the Activity (Mus musculus [5]) was “Active” and the Activity (RAW [6]) was “Active”. For the same molecule, the Activity (L929 [7]) was 25.7%, the Activity (Mus musculus [8]) was 31.8% and the Activity (L929 [9]) was 0%. The Activity (Mus musculus [10]) was “Active”, the Activity (Mus musculus [11]) was “Active” and the Activity (HT-29 [12]) was “Active”. For the same molecule, the Activity (L929 [13]) was 45.9%, the Activity (Mus musculus [14]) was 45.3% and the Activity (Mus musculus [15]) was 3 µM. It also gave an Activity (Mus musculus [16]) of 18.8%, an IC50 (RAW [17]) of 124 µM and an IC50 (RAW [18]) of 1.4 µM. The Activity (Mus musculus [19]) was 2.3, the Activity (Mus musculus [20]) was 13 µM and the Activity (RAW [21]) was “Dose-dependent effect”. For the same molecule, the Activity (Mus musculus [22]) was 3.1, the Activity (Mus musculus [23]) was “Non-toxic” and the Activity (Mus musculus [24]) was 40 µM. The ED50 (Mus musculus [25]) was 2.8 mg/kg, the Activity (Mus musculus [26]) was 4 µM and the Activity [27] was “Active”. It also gave an IC50 (L929 [28]) of 1.7 µM and an Activity (Mus musculus [29]) of 2.5.
